Among the data in US8338565B2, “Macrocyclic compounds for inhibition of tumor necrosis factor alpha” (Ensemble Therapeutics Corporation, priority 2008, dated 2012) are IC50 values, retold here.

Numbered stars: 1 amine (or outer) side, 2 acyl side, 3 side chain; on linkers, the order of the positions; unused ones are H or OH. Bridge positions count the residues as written; N and C are the ends. Square brackets hold non-standard residues; d marks the D form. Peptide text beside a SMILES is read from it. * marks the point of attachment. Bip = N[C@@H](Cc1ccc(-c2ccccc2)cc1)C(=O)O; Phe(4-NH2) = Nc1ccc(C[C@H](N)C(=O)O)cc1; d(hPhe) = N[C@H](CCc1ccccc1)C(=O)O; d2Thi = N[C@H](Cc1cccs1)C(=O)O; Suc = O=C(CCC(=O)[*:2])[*:1]; NHCH2SO3H = O=S(=O)(O)CN*; Boc = CC(C)(C)OC(=O)*; GABA = NCCCC(=O)O

T1 sequence (P01375 77-233 limits assumed, species assumed): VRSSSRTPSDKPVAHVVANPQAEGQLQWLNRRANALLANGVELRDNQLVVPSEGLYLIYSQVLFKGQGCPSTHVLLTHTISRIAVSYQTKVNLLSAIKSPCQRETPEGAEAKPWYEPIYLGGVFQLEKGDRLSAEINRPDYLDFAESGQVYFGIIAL

The assay addresses T1, TNFα / TNFα receptor (TNFα R1/Fc) (Homo sapiens, UniProt P01375).
T1 construct: purchased R&D Systems
As to the kind of experiment: Inhibition of binding of TNFα to the TNFα receptor (plate ELISA competition). As to conditions: Table 2; read-out: Activity (IC50, inhibition of TNFα binding to TNFα R1/Fc). The method in brief: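 Plates were coated with TNFα at 15 nM. Test compound and 8.33 nM receptor-Fc (PBST, 2% DMSO) were first mixed in solution for 30 min at room temperature, then transferred to the plates for another 30 min. Competition was read by absorbance at 450 nm after HRP anti-human IgG Fc detection with TMB.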
In the case of `O=C1COc2ccc(cc2)C[C@@H](C(=O)O)NC(=O)[C@H](CCc2ccccc2)NC(=O)[C@@H](Cc2ccc(-c3ccccc3)cc2)NC(=O)[C@H](CCc2ccccc2)N1` [Compound 513], the IC50 is below 10 µM. In the case of `CC(C)(C)Oc1ccc(C[C@@H]2NC(=O)COc3ccc(cc3)C[C@@H](C(=O)O)NC(=O)[C@H](CCc3ccccc3)NC(=O)[C@@H](Cc3ccc(-c4ccccc4)cc3)NC2=O)cc1` [Compound 514] it was below 10 µM; in that of `CC(C)(C)c1ccc(C[C@@H]2NC(=O)COc3ccc(cc3)C[C@@H](C(=O)O)NC(=O)[C@H](CCc3ccccc3)NC(=O)[C@@H](Cc3ccc(-c4ccccc4)cc3)NC2=O)cc1` [Compound 515], 10 to 30 µM; in that of `CC(C)(C)OC(=O)NCCCC(=O)N[C@H]1CC(=O)Nc2ccc(cc2)C[C@@H](C(=O)O)NC(=O)[C@@H](Cc2ccccc2)NC(=O)[C@H](Cc2ccc(-c3ccccc3)cc2)NC(=O)[C@@H](Cc2cccs2)NC1=O` [Compound 516] ({Boc-GABA}-D[d2Thi][Bip][dF][Phe(4-NH2)]-OH; lactam 1-5), 30 to 100 µM. In the case of `O=C1COc2ccc(cc2)C[C@@H](C(=O)O)NC(=O)[C@@H](CCc2ccccc2)NC(=O)[C@H](Cc2ccc(-c3ccccc3)cc2)NC(=O)C(c2ccc(Br)cc2)N1` (stereo partly shown) [Compound 517] it was 10 to 30 µM; in that of `O=C1COc2ccc(cc2)C[C@@H](C(=O)O)NC(=O)[C@@H](CCc2ccccc2)NC(=O)[C@H](Cc2ccc(-c3ccccc3)cc2)NC(=O)[C@@H](Cc2ccc(-c3ccncc3)cc2)N1` [Compound 518], below 10 µM. In the case of `O=C1COc2ccc(cc2)C[C@@H](C(=O)O)NC(=O)[C@@H](CCc2ccccc2)NC(=O)[C@H](Cc2ccc(-c3ccccc3)cc2)NC(=O)[C@@H](Cc2ccc(F)cc2)N1` [Compound 519] it was 10 to 30 µM; in that of `O=C1COc2ccc(cc2)C[C@@H](C(=O)O)NC(=O)[C@@H](CCc2ccccc2)NC(=O)[C@H](Cc2ccc(-c3ccccc3)cc2)NC(=O)[C@@H](Cc2cccc(C(F)(F)F)c2)N1` [Compound 520], below 10 µM. `O=C1COc2ccc(cc2)C[C@@H](C(=O)O)NC(=O)[C@@H](CCc2ccccc2)NC(=O)[C@H](Cc2ccc(-c3ccccc3)cc2)NC(=O)[C@@H](Cc2ccc(O)cc2)N1` [Compound 521]: the IC50 was above 100 µM. To `COc1ccc(C[C@H]2NC(=O)COc3ccc(cc3)C[C@@H](C(=O)O)NC(=O)[C@@H](CCc3ccccc3)NC(=O)[C@H](Cc3ccc(-c4ccccc4)cc3)NC2=O)cc1` [Compound 522] belongs above 100 µM.

In the case of `O=C1COc2ccc(cc2)C[C@@H](C(=O)O)NC(=O)[C@@H](CCc2ccccc2)NC(=O)[C@H](Cc2ccc(-c3ccccc3)cc2)NC(=O)[C@@H](Cc2ccncc2)N1` [Compound 523], the IC50 is above 100 µM. Consider `O=C1COc2ccc(cc2)C[C@@H](C(=O)O)NC(=O)[C@@H](CCc2ccccc2)NC(=O)[C@H](Cc2ccc(-c3ccccc3)cc2)NC(=O)[C@@H](Cc2ccc(F)c(F)c2)N1` [Compound 524], for which the IC50 is 10 to 30 µM. To `O=C1COc2ccc(cc2)C[C@@H](C(=O)O)NC(=O)[C@@H](CCc2ccccc2)NC(=O)C(c2ccc(Br)cc2)NC(=O)[C@@H](Cc2cccs2)N1` (stereo partly shown) [Compound 525] belongs below 10 µM; to `O=C1COc2ccc(cc2)C[C@@H](C(=O)O)NC(=O)[C@@H](CCc2ccccc2)NC(=O)[C@H](Cc2ccc(-c3ccc(C(=O)OCc4ccccc4)cc3)cc2)NC(=O)[C@@H](Cc2cccs2)N1` [Compound 526], above 100 µM; to `O=C1COc2ccc(cc2)C[C@@H](C(=O)O)NC(=O)[C@@H](CCc2ccccc2)NC(=O)[C@H](Cc2ccc(F)cc2)NC(=O)[C@@H](Cc2cccs2)N1` [Compound 527], above 100 µM. `CC(=O)Nc1ccc(C[C@H](NC(=O)[C@@H]2Cc3ccc(cc3)NC(=O)CCC(=O)N[C@H](CCc3ccccc3)C(=O)N[C@@H](Cc3ccc(-c4ccccc4)cc3)C(=O)N[C@H](Cc3ccccc3)C(=O)N2)C(=O)O)cc1` [Compound 528] ([d(hPhe)][Bip][dF][Phe(4-NH2)][Phe(4-NH2)](Ac)-OH; linker N-4 via Suc): the IC50 was below 10 µM. To `NCCCC(=O)N[C@H]1CC(=O)Nc2ccc(cc2)C[C@@H](C(=O)N[C@@H](Cc2ccccc2)C(=O)O)NC(=O)[C@@H](Cc2ccccc2)NC(=O)[C@H](Cc2ccc(-c3ccccc3)cc2)NC(=O)[C@@H](Cc2cccs2)NC1=O` [Compound 529] (H-[GABA]D[d2Thi][Bip][dF][Phe(4-NH2)]F-OH; lactam 2-6) belongs above 100 µM. In the case of `O=C1COc2ccc(cc2)C[C@@H](C(=O)O)NC(=O)[C@@H](Cc2ccc(-c3ccccc3)cc2)NC(=O)[C@H](Cc2ccc(-c3ccccc3)cc2)NC(=O)[C@@H](Cc2cccs2)N1` [Compound 530] it was above 100 µM; in that of `O=C1COc2ccc(cc2)C[C@@H](C(=O)O)NC(=O)[C@@H](Cc2ccc(C(F)(F)F)cc2)NC(=O)[C@H](Cc2ccc(-c3ccccc3)cc2)NC(=O)[C@@H](Cc2cccs2)N1` [Compound 531], above 100 µM; in that of `O=C1COc2ccc(cc2)C[C@@H](C(=O)O)NC(=O)[C@@H](Cc2ccc(F)cc2)NC(=O)[C@H](Cc2ccc(-c3ccccc3)cc2)NC(=O)[C@@H](Cc2cccs2)N1` [Compound 532], above 100 µM. In the case of `O=C1COc2ccc(cc2)C[C@@H](C(=O)O)NC(=O)[C@@H](Cc2cccc(C(F)(F)F)c2)NC(=O)[C@H](Cc2ccc(-c3ccccc3)cc2)NC(=O)[C@@H](Cc2cccs2)N1` [Compound 533] it was above 100 µM. As for `O=C1COc2ccc(cc2)C[C@@H](C(=O)O)NC(=O)[C@@H](Cc2ccc(O)cc2)NC(=O)[C@H](Cc2ccc(-c3ccccc3)cc2)NC(=O)[C@@H](Cc2cccs2)N1` [Compound 534], the IC50 was above 100 µM. In the case of `COc1ccc(C[C@H]2NC(=O)[C@H](Cc3ccc(-c4ccccc4)cc3)NC(=O)[C@@H](Cc3cccs3)NC(=O)COc3ccc(cc3)C[C@@H](C(=O)O)NC2=O)cc1` [Compound 535] it was above 100 µM. In the case of `O=C1COc2ccc(cc2)C[C@@H](C(=O)O)NC(=O)[C@@H](Cc2ccncc2)NC(=O)[C@H](Cc2ccc(-c3ccccc3)cc2)NC(=O)[C@@H](Cc2cccs2)N1` [Compound 536] it was below 10 µM; in that of `O=C1COc2ccc(cc2)C[C@@H](C(=O)O)NC(=O)[C@@H](C/C=C/c2ccccc2)NC(=O)[C@H](Cc2ccc(-c3ccccc3)cc2)NC(=O)[C@@H](Cc2cccs2)N1` [Compound 537], above 100 µM. In the case of `O=C1COc2ccc(cc2)C[C@@H](C(=O)O)NC(=O)[C@@H](Cc2cccs2)NC(=O)[C@H](Cc2ccc(-c3ccccc3)cc2)NC(=O)[C@@H](Cc2cccs2)N1` [Compound 538] it was above 100 µM; in that of `O=C1COc2ccc(cc2)C[C@@H](C(=O)O)NC(=O)[C@@H](CCc2ccccc2)NC(=O)[C@H](Cc2ccc(Br)cc2)NC(=O)[C@@H](Cc2cccs2)N1` [Compound 539], above 100 µM; in that of `COc1ccc(C[C@@H]2NC(=O)[C@@H](Cc3cccs3)NC(=O)COc3ccc(cc3)C[C@@H](C(=O)O)NC(=O)[C@@H](CCc3ccccc3)NC2=O)cc1OC` [Compound 540], above 100 µM. For the compound `O=C1COc2ccc(cc2)C[C@@H](C(=O)O)NC(=O)[C@@H](CCc2ccccc2)NC(=O)[C@H](Cc2ccc([N+](=O)[O-])cc2)NC(=O)[C@@H](Cc2cccs2)N1` [Compound 541], the IC50 is above 100 µM. Turning to `O=C1CCC(=O)N[C@H](CCc2ccccc2)C(=O)N[C@@H](Cc2ccc(-c3ccccc3)cc2)C(=O)N[C@H](Cc2ccccc2)C(=O)N[C@H](C(=O)N[C@@H](Cc2ccccc2)C(=O)NCS(=O)(=O)O)Cc2ccc(cc2)N1` [Compound 542] ([d(hPhe)][Bip][dF][Phe(4-NH2)]F-NHCH2SO3H; linker N-4 via Suc), the IC50 was below 10 µM. In the case of `O=C1CCCc2cn(nn2)C[C@@H](C(=O)O)NC(=O)[C@@H](Cc2ccccc2)NC(=O)[C@H](Cc2ccc(C(F)(F)F)cc2)NC(=O)[C@@H](CCc2ccccc2)N1` [Compound 543] it was above 100 µM; in that of `O=C1CCCCc2cn(nn2)C[C@@H](C(=O)O)NC(=O)[C@@H](CCc2ccccc2)NC(=O)[C@H](Cc2ccc(-c3ccccc3)cc2)NC(=O)[C@@H](Cc2cccs2)N1` [Compound 544], below 10 µM. On to `O=C1CCC(=O)N[C@H](Cc2cccs2)C(=O)N[C@@H](Cc2ccc(-c3ccccc3)cc2)C(=O)N[C@H](Cc2ccccc2)C(=O)N[C@H](C(=O)O)Cc2ccc(cn2)N1` [Compound 545], for which the IC50 lay within 10 to 30 µM.

Consider `O=C1CCC(=O)N[C@H](CCc2ccccc2)C(=O)N[C@@H](Cc2ccc(-c3ccccc3)cc2)C(=O)N[C@H](Cc2ccccc2)C(=O)N[C@H](C(=O)O)Cc2ccc(cn2)N1` [Compound 546], for which the IC50 is below 10 µM. To `O=C1CCC(=O)N[C@H](Cc2cccs2)C(=O)N[C@@H](Cc2ccc(-c3ccccc3)cc2)C(=O)N[C@H](CCc2ccccc2)C(=O)N[C@H](C(=O)O)Cc2ccc(cn2)N1` [Compound 547] belongs below 10 µM. `O=C1CCC(=O)N[C@H](CCc2ccccc2)C(=O)N[C@@H](Cc2ccc(C(F)(F)F)cc2)C(=O)N[C@H](Cc2ccccc2)C(=O)N[C@H](C(=O)O)Cc2ccc(cn2)N1` [Compound 548]: the IC50 was in the range of 30 to 100 µM. As for `O=C1CCC(=O)N[C@H](Cc2cccs2)C(=O)N[C@@H](Cc2ccc(-c3ccccc3)cc2)C(=O)N[C@H](Cc2ccccc2)C(=O)Nc2ccc(cc2)C[C@@H](C(=O)O)N1` [Compound 549], the IC50 is above 100 µM. To `O=C1CCC(=O)N[C@H](CCc2ccccc2)C(=O)N[C@@H](Cc2ccc(-c3ccccc3)cc2)C(=O)N[C@H](Cc2ccccc2)C(=O)Nc2ccc(cc2)C[C@@H](C(=O)O)N1` [Compound 550] belongs 30 to 100 µM. To `O=C1CCC(=O)N[C@H](Cc2cccs2)C(=O)N[C@@H](Cc2ccc(-c3ccccc3)cc2)C(=O)N[C@H](CCc2ccccc2)C(=O)Nc2ccc(cc2)C[C@@H](C(=O)O)N1` [Compound 551] belongs 30 to 100 µM; to `O=C1CCC(=O)N[C@H](CCc2ccccc2)C(=O)N[C@@H](Cc2ccc(C(F)(F)F)cc2)C(=O)N[C@H](Cc2ccccc2)C(=O)Nc2ccc(cc2)C[C@@H](C(=O)O)N1` [Compound 552], 10 to 30 µM.
